Reference: ChEMBL document CHEMBL1139889, “Identification and characterization of a library of microheterogeneous cyclohexadepsipeptides from the fungus Isaria” (J Nat Prod, 2007)
Peptide text beside a SMILES is read from it.

Assays:
[1] = tested on: Plasmodium falciparum; assay: Growth inhibition of Plasmodium falciparum 3D7 in erythrocytes by [3H]hypoxanthine uptake; type: functional, organism-based
[2] = Toxicity against human erythrocytes assessed as lysis at 600 uM; type: cell-based; details: erythrocyte
[3] = Toxicity against human erythrocytes assessed as lysis at 300 uM; type: cell-based; details: erythrocyte

Structure (SMILES) | IC50 [1] [µM] | Activity [2] | Activity [3]
CC(C)CC1OC(=O)CCNC(=O)[C@H](Cc2ccccc2)N(C)C(=O)[C@H](C(C)C)N(C)C(=O)[C@H](Cc2ccccc2)NC(=O)[C@@H]2CCCN2C1=O (stereo partly specified) [ISARIDINE A] (HELM PEPTIDE1{F.[meV].[meF].[bAla].[CC(C)CC(O[*:1])C(=O)[*:2]].P}$PEPTIDE1,PEPTIDE1,1:R1-6:R2$$$V2.0) | 230 | Non-toxic | Non-toxic
CCCCCCC1CC(=O)NCC(=O)N[C@@H](C(C)C)C(=O)N[C@H](CC(C)C)C(=O)N[C@@H](C)C(=O)N[C@@H](C(C)C)C(=O)O1 (stereo partly specified) [ISARIIN B] | 118 | Non-toxic | Non-toxic
